The Kinase Knowledgebase extract (Sharma et al. 2016)
Values joined by “and” are separate entries in the source; they are usually repeats but may differ in a detail not shown here. Equal entries are not always repeated.

Columns and labels:
MAPK14 (human) [1] = target: MAPK14 (human) (UniProt Q16539); test: Inhibition of MAPK14 Kinase Activity
MAPK14 (human) [2] = target: MAPK14 (human) (UniProt Q16539); test: Assessment of Phosphorylation of MAPK14 in HeLa Cell Line

Sequence of MAPK14 (human) (Q16539 whole entry, looked up): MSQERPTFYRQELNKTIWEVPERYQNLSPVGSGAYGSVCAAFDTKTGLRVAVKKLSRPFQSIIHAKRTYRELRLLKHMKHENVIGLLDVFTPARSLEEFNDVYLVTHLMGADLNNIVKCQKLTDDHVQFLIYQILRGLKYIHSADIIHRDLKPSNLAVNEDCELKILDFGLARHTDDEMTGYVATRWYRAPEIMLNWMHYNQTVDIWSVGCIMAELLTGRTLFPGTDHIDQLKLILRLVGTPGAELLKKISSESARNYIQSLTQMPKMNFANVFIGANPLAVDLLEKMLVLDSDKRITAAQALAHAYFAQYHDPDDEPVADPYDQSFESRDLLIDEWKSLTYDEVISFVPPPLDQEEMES

CCOC[C@H](C)Nc1nc2ccc(-c3nc(C4(CO)CC4)[nH]c3-c3ccc(F)cc3F)nc2o1
IC50 (MAPK14 (human) [1]): < 0.05 µM | IC50 (MAPK14 (human) [2]): < 0.05 µM

COCC[C@H](C)Nc1nc2ccc(-c3nc(C4(C)COC4)[nH]c3-c3ccc(F)cc3F)nc2o1
IC50 (MAPK14 (human) [1]): < 0.05 µM | IC50 (MAPK14 (human) [2]): < 0.05 µM

COCC[C@H](C)Nc1nc2ccc(-c3nc(C4CC4)[nH]c3-c3ccc(F)cc3F)nc2o1
IC50 (MAPK14 (human) [1]): < 0.05 µM | IC50 (MAPK14 (human) [2]): < 0.05 µM

COCC[C@H](C)Nc1nc2ccc(-c3nc(C(C)(C)CO)[nH]c3-c3ccc(F)cc3F)nc2o1
IC50 (MAPK14 (human) [1]): < 0.05 µM | IC50 (MAPK14 (human) [2]): 0.0016 µM and < 0.05 µM

COCC[C@@H](C)Nc1nc2ccc(-c3nc(C(C)(C)CO)[nH]c3-c3ccc(F)cc3F)nc2o1
IC50 (MAPK14 (human) [1]): < 0.05 µM | IC50 (MAPK14 (human) [2]): < 0.05 µM
